Reference: US9586986B2, “Substituted 7-deazapurine ribonucleosides for therapeutic uses” (Institute of Organic Chemistry and Biochemistry ASCR, v.v.i., priority 2014, dated 2017)

How the values were obtained:
Format in all cases: cell-based
[1] = system: HeLa S3; experiment: XTT cytotoxicity assay, HeLa S3; details: Homo sapiens, HeLa S3; 72 h incubation; read-out: XTT, IC50 HeLa S3
How it was run: (§1)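 Cells seeded at 10,000 per well, compounds added after 24 h and incubated 72 h, then XTT (with N-methyl dibenzopyrazine methyl sulfate) for 2 h; absorbance at 495 nm. IC50 by non-linear regression.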

[2] = system: HCT116p53-/-; experiment: Cytostatic/cytotoxic MTT assay, HCT116p53-/-; details: Homo sapiens, HCT-116; 72 h incubation; read-out: MTT, IC50 HCT116 p53-/-
How it was run: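 Human cancer lines, including daunorubicin-resistant CEM-DNR (mrp-1/mdr-1 overexpressing) and paclitaxel-resistant K562-TAX (mdr-1), seeded 25,000-30,000 cells/well, pre-incubated 24 h, then treated in duplicate with four-fold dilutions for 72 h at 37° C, 5% CO2. MTT read-out at 540 nm; IC50 from dose-response curves.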

[3] = system: K562; experiment: Cytostatic/cytotoxic MTT assay, K562; details: Homo sapiens, K562; 72 h incubation; read-out: MTT, IC50 K562
How it was run: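 Cells were plated at 25,000-30,000/well, given 24 h pre-incubation, then treated with four-fold compound dilutions in duplicate for 72 h at 37° C., 5% CO2. MTT was added for 1-4 h and formazan was dissolved overnight in 10% SDS (pH 5.5) before reading OD at 540 nm. IC50 is the concentration giving 50% growth inhibition.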

[4] = system: HCV subtype 2A replicon in Huh-7 cells; experiment: HCV sub-genomic reporter replicon assay, subtype 2A; details: Hepatitis C virus; Huh-7 cells, HCV subtype 2A replicon; read-out: Replicon 2A EC50
Description: (§2) Compounds were also tested in Huh-7 cells harboring sub-genomic reporter replicons derived from HCV subtypes 1B and 2A (ref.: Stuyver, L. J.; Whitaker, T.; McBrayer, T. R.; Hernandez-Santiago, B. I.; Lostia, S.; Tharnish, P. M.; Ramesh, M.; Chu, C. K.; Jordan, R.; Shi, J. X.; Rachakonda, S.; Watanabe, K. A.; Otto, M. J.; Schinazi, R. F. Antimicrob. Agents Chemother. 2003, 47, 244-254).

[5] = system: HCV subtype 1B replicon in Huh-7 cells; experiment: HCV sub-genomic reporter replicon assay, subtype 1B; details: Hepatitis C virus; Huh-7 cells, HCV subtype 1B replicon; read-out: Replicon 1B EC50
Description: as §2

[6] = system: HL60; experiment: XTT cytotoxicity assay, HL-60; details: Homo sapiens, HL-60; 72 h incubation; read-out: XTT, IC50 HL60
How it was run: as §1

| SMILES | IC50 [1] [nM] | IC50 [2] [nM] | IC50 [3] [nM] | EC50 [4] [nM] | EC50 [5] [nM] | IC50 [6] [nM] |
| --- | --- | --- | --- | --- | --- | --- |
| COc1ncnc2c1c(-c1cccs1)cn2[C@@H]1O[C@H](CO)[C@@H](O)[C@H]1O [Compound 1c, 4-Methoxy-7-(β-D-ribofuranosyl)-5-(thiophen-2-yl)-7H-pyrrolo[2,3-d]pyrimidine] | 1760 | 440 | 70 | > 44000 | 1080 | 80 |
| CN(C)c1ncnc2c1c(-c1ccco1)cn2[C@@H]1O[C@H](CO)[C@@H](O)[C@H]1O [Compound 4a, 4-Dimethylamino-5-(furan-2-yl)-7-(β-D-ribofuranosyl)-7H-pyrrolo[2,3-d]pyrimidine] | 1190 | 320 | 150 | 1350 | 1490 | 220 |
| CNc1ncnc2c1c(-c1cc3ccccc3o1)cn2[C@@H]1O[C@H](CO)[C@@H](O)[C@H]1O [Compound 3f, 5-(Benzofuran-2-yl)-4-methylamino-7-(β-D-ribofuranosyl)-7H-pyrrolo[2,3-d]pyrimidine] | > 20000 | > 20000 | > 20000 | 13600 | 2050 | 8950 |
| COc1ncnc2c1c(-c1ccoc1)cn2[C@@H]1O[C@H](CO)[C@@H](O)[C@H]1O [Compound 1b, 5-(Furan-3-yl)-4-methoxy-7-(β-D-ribofuranosyl)-7H-pyrrolo[2,3-d]pyrimidine] | 1790 | 130 | 190 | 8280 | 330 | 150 |
